According to patent US20250195503A1, “TETRACYCLIC COMPOUND AND USE THEREOF” (SHANGHAI SHIJIANG BIOTECHNOLOGY TECHNOLOGY CO., LTD., priority 2022, published 2025):

Legend:
Daoy cell = test: Mitochondria membrane potential difference by TMRM in Daoy cell; type: cell-based, human; settings: CsA −, H2O2 +
From the text: The mitochondria permeability transition pore (mPTP) was a non-specific channel on the inner membrane of mitochondria, which could allow small molecules with molecular less than 1.5KD to pass freely, and its activity was affected by peroxides (such as H2O2), pH and calcium ions in mitochondria. […] For cells with active mitochondria permeability transition pore, adding peroxide (such as H2O2) could increase the activity of mitochondria permeability transition pore, resulting in a decrease in mitochondria membrane potential.

[1] = system: Daoy cell transfected with empty virus vector without carrying shRNA; test: Mitochondria membrane potential difference by TMRM in Daoy cell transfected with empty virus vector; type: cell-based, human; settings: CsA −, H2O2 +
[2] = system: Daoy cell transfected with virus vector carrying shRNA that could specificly induce the degradation of PPIF mRNA; test: Mitochondria membrane potential difference by TMRM in Daoy cell transfected with virus vector carrying PPIF shRNA; type: cell-based, human; settings: CsA −, H2O2 +
mPTP-active Daoy cell = test: Inhibitory effect (IC50) on mPTP-active Daoy cell, Promega CellTiter-Glo kit; type: cell-based; settings: Homo sapiens, Daoy cell transfected with empty virus vector without PPIF shRNA
mPTP-inactive Daoy cell = test: Inhibitory effect (IC50) on mPTP-inactive Daoy cell (PPIF shRNA), Promega CellTiter-Glo kit; type: cell-based; settings: Homo sapiens, Daoy cell transfected with virus vector carrying PPIF shRNA
sh-DNMT1 NCI-H82 cell = test: Inhibitory effect (IC50) on sh-DNMT1 NCI-H82 cell, Promega CellTiter-Glo kit; type: cell-based; settings: Homo sapiens, DNMT1 knocked down NCI-H82 cell
Con-NCI-H82 cell = test: Inhibitory effect (IC50) on Con-NCI-H82 cell, Promega CellTiter-Glo kit; type: cell-based; settings: Homo sapiens, NCI-H82 cell transfected with empty virus vector
ov-NNMT NCI-H82 cell = test: Inhibitory effect (IC50) on ov-NNMT NCI-H82 cell, Promega CellTiter-Glo kit; type: cell-based; settings: Homo sapiens, NNMT protein overexpressed NCI-H82 cell

Row | SMILES | IC50 (sh-DNMT1 NCI-H82 cell) | IC50 (Con-NCI-H82 cell) | IC50 (ov-NNMT NCI-H82 cell) | Relative TMRM signal intensity (%), mean value (Daoy cell) | Relative TMRM signal intensity (%), mean value [1] | Relative TMRM signal intensity (%), mean value [2] | IC50 (mPTP-active Daoy cell) | IC50 (mPTP-inactive Daoy cell)
1 | OO [H2O2] |  |  |  | 82% | 79% | 95% |  | 
2 | COc1ccc2c(c1OC)CN1CCc3cc4c(cc3C1=C2)OCO4 [compound AB31713] | 14.6 µM |  |  |  |  |  | 25 µM | 12.5 µM
3 | COc1ccc2c(c1OC)C(C(Cl)(Cl)Cl)N1CCc3cc4c(cc3C1=C2)OCO4 (stereo not shown) [compound AB31714] | 14.3 µM | 2.33 µM | 7.04 µM |  |  |  | 26.7 µM | 12.5 µM
4 | COc1ccc2c(c1OC)C(C(C)C)N1CCc3cc4c(cc3C1=C2)OCO4 (stereo not shown) [compound AB31885] | 5.99 µM | 1.12 µM | 4.13 µM |  |  |  | 6.43 µM | 3.17 µM
5 | COc1ccc2c(c1OC)C(C1CCCCC1)N1CCc3cc4c(cc3C1=C2)OCO4 (stereo not shown) [compound AB31893] |  |  |  |  |  |  | 5.14 µM | 2.5 µM
6 | COc1ccc2c(c1OC)C(C1CCCC1)N1CCc3cc4c(cc3C1=C2)OCO4 (stereo not shown) [compound AB31900] | 6.58 µM |  |  |  |  |  | 5.37 µM | 2.56 µM
7 | COc1ccc2c(c1OC)C(C(F)(F)F)N1CCc3cc4c(cc3C1=C2)OCO4 (stereo not shown) [compound AB35403] | 24.2 µM | 6.91 µM | 16.8 µM |  |  |  | 60.1 µM | 28.6 µM

Second part, led by results:

Row | IC50 (sh-DNMT1 NCI-H82 cell) | IC50 (Con-NCI-H82 cell) | IC50 (ov-NNMT NCI-H82 cell) | SMILES | Relative TMRM signal intensity (%), mean value (Daoy cell) | Relative TMRM signal intensity (%), mean value [1] | Relative TMRM signal intensity (%), mean value [2] | IC50 (mPTP-active Daoy cell) | IC50 (mPTP-inactive Daoy cell)
8 | 12.3 µM | 3.27 µM | 10.1 µM | CCCCC1c2c(ccc(OC)c2OC)C=C2c3cc4c(cc3CCN21)OCO4 (stereo not shown) [compound AB31875] |  |  |  | 14.6 µM | 6.25 µM
9 | 18.8 µM | 5.16 µM | 11.6 µM | C=CCCC1c2c(ccc(OC)c2OC)C=C2c3cc4c(cc3CCN21)OCO4 (stereo not shown) [compound AB31882] |  |  |  | 19.3 µM | 9.22 µM
10 | 5.98 µM | 2.18 µM | 5.56 µM | CCC1c2c(ccc(OC)c2OC)C=C2c3cc4c(cc3CCN21)OCO4 (stereo not shown) [compound AB31883] |  |  |  | 5.64 µM | 2.45 µM
11 | 8.64 µM | 2.31 µM | 6.32 µM | CCCC1c2c(ccc(OC)c2OC)C=C2c3cc4c(cc3CCN21)OCO4 (stereo not shown) [compound AB31884] |  |  |  | 5.76 µM | 2.71 µM
12 | 9.66 µM | 3.22 µM | 8.48 µM | COc1ccc2c(c1OC)C(C)N1CCc3cc4c(cc3C1=C2)OCO4 (stereo not shown) [compound AB31886] |  |  |  | 14.3 µM | 5.74 µM
13 | 5.73 µM | 2.06 µM | 6.55 µM | C=CCC1c2c(ccc(OC)c2OC)C=C2c3cc4c(cc3CCN21)OCO4 (stereo not shown) [compound AB31891] |  |  |  | 6.22 µM | 3.12 µM
14 | 3.65 µM | 0.72 µM | 2.66 µM | CCCCCCC1c2c(ccc(OC)c2OC)C=C2c3cc4c(cc3CCN21)OCO4 (stereo not shown) [compound AB35435] |  |  |  | 1.32 µM | 0.69 µM
